The source made the active and inactive calls. No cut-off for these calls is given here.
What was measured:
[1] = molecular target: Cholinesterase (Equus caballus) (UniProt P81908); assay: Pseudo-irreversible inhibition of equine serum BuChE assessed as overall carbamolyation-rate using butyrylthiocholine iodide as substrate preincubated with enzyme for 60 mins prior to substrate addition; assay type: cell-free
Cholinesterase [2] = molecular target: T1, Cholinesterase (Equus caballus, UniProt P81908); assay: Pseudo-irreversible inhibition of equine serum BuChE assessed as binding affinity in an equilibrium state using butyrylthiocholine iodide as substrate preincubated with enzyme for 60 mins prior to substrate addition; assay type: cell-free
[3] = Cytotoxicity against human HepG2 cells assessed as cell viability at 50 uM incubated for 24 hrs by MTT assay; assay type: cell-based; settings: read-out: Activity
Mus musculus [4] = assay: Anti-alzheimer activity against scopolamine-induced cognitive dysfunction mouse model assessed as reduction in escape time latency at 20 mg/kg, ip measured after 60 mins by Morris water maze test; assay type: functional, organism-based
[5] = Acute toxicity in ICR mouse assessed as animal death at 1 g/kg, ig measured for 7 days; settings: in vivo, po, 1000 mg/kg, 168 h, time 7 day
Acetylcholinesterase [6] = molecular target: Acetylcholinesterase (Homo sapiens, UniProt P22303); assay: Inhibition of human AChE using acetylthiocholine iodide as substrate at 20 uM preincubated with enzyme for 5 mins followed by substrate addition and measured after 5 mins by Ellman's method; settings: time 10.0 min
Mus musculus [7] = assay: Anti-alzheimer activity against oligomerized-amyloid beta (1 to 42) peptide-induced cognitive dysfunction ICR mouse model assessed as reduction in escape latency time at 5 mg/kg, po administered from day 3 to 14 by Morris water maze test; assay type: functional, organism-based; settings: time 12.0 day
Cholinesterase [8] = molecular target: T1, Cholinesterase
Description: Inhibition of equine serum BuChE using butyrylthiocholine iodide as substrate preincubated with enzyme for 20 mins followed by substrate addition and measured after 20 mins by Ellman's method

[9] = n-Octanol/PBS partition coefficient, logP of the compound incubated for 48 hrs at pH 7.4 by shake flask method; assay type: physicochemical
[10] = Hepatotoxicity in ICR mouse assessed as effect on AST level in serum at 30 mg/kg, ig measured after 36 hrs; assay type: toxicity, organism-based; settings: in vivo, po
[11] = molecular target: Cholinesterase (Equus caballus) (UniProt P81908); assay: Pseudo-irreversible inhibition of equine serum BuChE assessed as decarbamolyation-rate using butyrylthiocholine iodide as substrate preincubated with enzyme for 60 mins prior to substrate addition; assay type: cell-free
[12] = Antioxidant activity assessed as DPPH radical scavenging activity at 100 uM incubated for 2 hrs by microplate reader method; assay type: functional
[13] = Permeability of the compound at 100 ug/ml incubated for 18 hrs by PAMPA; assay type: ADME; settings: dose 100 µg/ml, read-out: permeability
Mus musculus [14] = assay: Anti-alzheimer activity against oligomerized-amyloid beta (1 to 42) peptide-induced cognitive dysfunction ICR mouse model assessed as increase in neuronal density at CA1 region of hippocampus at 5 mg/kg, po administered from day 3 to 14 by Hematoxylin-Eosin staining based microscopic analysis; assay type: functional, organism-based; settings: time 12.0 day
Mus musculus [15] = assay: Anti-alzheimer activity against oligomerized-amyloid beta (1 to 42) peptide-induced cognitive dysfunction ICR mouse model assessed as reduction in amyloid beta (1 to 42) peptide level in brain at 5 mg/kg, po administered from day 3 to 14 by ELISA; assay type: functional; settings: 288 h, time 12 day
Cholinesterase [16] = molecular target: Cholinesterase (Homo sapiens, UniProt P06276)
Description: Inhibition of human serum BuChE using butyrylthiocholine iodide as substrate preincubated with enzyme for 5 mins followed by substrate addition and measured after 5 mins by Ellman's method

Mus musculus [17] = assay: Anti-alzheimer activity against oligomerized-amyloid beta (1 to 42) peptide-induced cognitive dysfunction ICR mouse model assessed as simplification of trajectories to the platform at 5 mg/kg, po administered from day 3 to 14 by Morris water maze test; assay type: functional, organism-based; settings: time 12.0 day
PC-12 [18] = assay: Neuroprotective activity against H2O2-induced cytotoxicity in rat PC-12 cells assessed as increase in cell viability pretreated for 3 hrs followed by H2O2 stimulation and measured after 24 hrs by MTT assay; assay type: functional, cell-based; settings: time 27.0 hrs
[19] = Cytotoxicity against human L02 cells assessed as cell viability at 50 uM incubated for 24 hrs by MTT assay; assay type: cell-based; settings: read-out: Activity
Mus musculus [20] = assay: Anti-alzheimer activity against scopolamine-induced cognitive dysfunction mouse model assessed as increase in swimming time in the target quadrant crossing at 20 mg/kg, ip measured after 60 mins by Morris water maze test; assay type: functional, organism-based
Mus musculus [21] = assay: Anti-alzheimer activity against oligomerized-amyloid beta (1 to 42) peptide-induced cognitive dysfunction ICR mouse model assessed as improvement in alteration performance at 5 mg/kg, po administered from day 3 to 14 by […]; assay type: functional, organism-based; settings: time 12.0 day
[22] = Acute toxicity in ICR mouse assessed as behavioral changes at 1 g/kg, ig measured for 7 days; settings: in vivo, po, 1000 mg/kg, 168 h, time 7 day
[23] = Hepatotoxicity in ICR mouse assessed as pericentral necrosis in liver at 30 mg/kg, ig measured after 36 hrs by immunohistochemical staining based analysis; assay type: toxicity, organism-based; settings: in vivo, po
Mus musculus [24] = assay: Anti-alzheimer activity against scopolamine-induced cognitive dysfunction mouse model assessed as increase in number of platform crossing at 20 mg/kg, ip measured after 60 mins by Morris water maze test; assay type: functional, organism-based
[25] = molecular target: Cholinesterase (Equus caballus) (UniProt P81908); assay: Pseudo-irreversible inhibition of equine serum BuChE assessed as carbamolyation-rate using butyrylthiocholine iodide as substrate preincubated with enzyme for 60 mins prior to substrate addition; assay type: cell-free
[26] = Hepatotoxicity in ICR mouse assessed as effect on ALT level in serum at 30 mg/kg, ig measured after 36 hrs; assay type: toxicity, organism-based; settings: in vivo, po
[27] = Hepatotoxicity in ICR mouse assessed as distinct fatty degeneration of hepatocytes of the surrounding intermediate and peripheral zones in liver at 30 mg/kg, ig measured after 36 hrs by immunohistochemical staining based analysis; assay type: toxicity, organism-based; settings: in vivo, po
[28] = molecular target: Acetylcholinesterase (Electrophorus electricus) (UniProt O42275); assay: Inhibition of electric eel AChE using acetylthiocholine iodide as substrate at 20 uM preincubated with enzyme for 20 mins followed by substrate addition and measured after 20 mins by Ellman's method; settings: time 40.0 min
[29] = Acute toxicity in ICR mouse assessed as effect on body weight at 1 g/kg, ig measured for 14 days; settings: in vivo, po, 1000 mg/kg, 336 h, time 14 day
PC-12 [30] = assay: Neuroprotective activity against H2O2-induced cytotoxicity in rat PC-12 cells assessed as cell viability at 25 uM pretreated for 3 hrs followed by H2O2 stimulation and measured after 24 hrs by MTT assay (reference value: 38.7%); assay type: functional; settings: time 27 hrs, read-out: Activity
Acetylcholinesterase [31] = molecular target: Acetylcholinesterase (Electrophorus electricus, UniProt O42275); assay: Inhibition of electric eel AChE using acetylthiocholine iodide as substrate preincubated with enzyme for 20 mins followed by substrate addition and measured after 20 mins by Ellman's method
[32] = Cytotoxicity against human HepG2 cells assessed as cell viability at 25 uM incubated for 24 hrs by MTT assay; assay type: cell-based; settings: read-out: Activity

Sequence of Acetylcholinesterase (Electrophorus electricus) (O42275 24-633 limits assumed): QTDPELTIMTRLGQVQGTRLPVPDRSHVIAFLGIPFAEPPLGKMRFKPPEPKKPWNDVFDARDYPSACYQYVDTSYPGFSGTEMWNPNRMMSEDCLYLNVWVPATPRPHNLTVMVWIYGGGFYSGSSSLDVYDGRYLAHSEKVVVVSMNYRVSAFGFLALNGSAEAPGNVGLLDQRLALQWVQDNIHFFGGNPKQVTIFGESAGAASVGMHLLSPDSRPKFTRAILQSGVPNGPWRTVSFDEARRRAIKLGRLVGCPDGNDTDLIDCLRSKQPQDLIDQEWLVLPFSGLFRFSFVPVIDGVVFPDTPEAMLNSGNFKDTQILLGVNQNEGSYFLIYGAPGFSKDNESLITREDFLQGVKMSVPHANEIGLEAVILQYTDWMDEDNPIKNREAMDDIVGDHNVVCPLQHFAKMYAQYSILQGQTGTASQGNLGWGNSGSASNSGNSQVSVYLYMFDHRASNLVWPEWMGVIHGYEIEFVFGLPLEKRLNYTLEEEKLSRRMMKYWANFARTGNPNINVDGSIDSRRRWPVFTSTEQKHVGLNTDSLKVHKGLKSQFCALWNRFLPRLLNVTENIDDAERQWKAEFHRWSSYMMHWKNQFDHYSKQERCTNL
T1 sequence (P81908 whole entry): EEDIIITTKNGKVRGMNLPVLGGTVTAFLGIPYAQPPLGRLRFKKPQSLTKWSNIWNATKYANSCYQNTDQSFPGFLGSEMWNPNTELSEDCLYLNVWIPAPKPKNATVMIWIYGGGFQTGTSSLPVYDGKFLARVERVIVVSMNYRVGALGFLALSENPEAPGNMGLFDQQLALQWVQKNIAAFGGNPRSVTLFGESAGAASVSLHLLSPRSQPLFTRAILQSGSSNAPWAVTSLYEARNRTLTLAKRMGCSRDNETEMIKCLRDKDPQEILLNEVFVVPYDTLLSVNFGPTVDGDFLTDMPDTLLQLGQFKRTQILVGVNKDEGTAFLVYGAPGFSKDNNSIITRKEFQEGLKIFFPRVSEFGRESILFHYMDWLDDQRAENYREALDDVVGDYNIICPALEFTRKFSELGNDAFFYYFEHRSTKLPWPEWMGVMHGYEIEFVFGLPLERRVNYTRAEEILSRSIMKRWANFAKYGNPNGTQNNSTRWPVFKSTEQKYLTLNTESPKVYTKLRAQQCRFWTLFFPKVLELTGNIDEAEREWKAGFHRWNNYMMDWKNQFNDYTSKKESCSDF
Sequence of Cholinesterase (Equus caballus) (P81908 whole entry): as above
Sequence of Acetylcholinesterase (Electrophorus electricus, UniProt O42275) (O42275 whole entry): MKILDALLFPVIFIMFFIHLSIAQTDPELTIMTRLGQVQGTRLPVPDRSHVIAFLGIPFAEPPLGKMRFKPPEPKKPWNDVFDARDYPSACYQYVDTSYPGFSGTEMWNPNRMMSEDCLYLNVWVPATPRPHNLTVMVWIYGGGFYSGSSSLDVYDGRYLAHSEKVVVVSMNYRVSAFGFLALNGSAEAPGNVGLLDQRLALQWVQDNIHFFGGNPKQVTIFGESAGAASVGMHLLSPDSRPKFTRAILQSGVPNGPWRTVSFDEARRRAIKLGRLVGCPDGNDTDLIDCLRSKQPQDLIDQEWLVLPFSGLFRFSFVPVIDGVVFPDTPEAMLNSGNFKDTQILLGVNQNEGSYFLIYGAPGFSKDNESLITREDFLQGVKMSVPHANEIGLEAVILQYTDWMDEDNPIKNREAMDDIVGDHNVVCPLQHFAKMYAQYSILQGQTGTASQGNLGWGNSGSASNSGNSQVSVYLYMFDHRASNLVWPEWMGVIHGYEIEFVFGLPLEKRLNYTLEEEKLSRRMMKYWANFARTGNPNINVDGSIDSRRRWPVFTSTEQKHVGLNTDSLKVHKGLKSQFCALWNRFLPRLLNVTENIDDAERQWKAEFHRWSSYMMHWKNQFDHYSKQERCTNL
Sequence of Cholinesterase (Homo sapiens, UniProt P06276) (P06276 whole entry): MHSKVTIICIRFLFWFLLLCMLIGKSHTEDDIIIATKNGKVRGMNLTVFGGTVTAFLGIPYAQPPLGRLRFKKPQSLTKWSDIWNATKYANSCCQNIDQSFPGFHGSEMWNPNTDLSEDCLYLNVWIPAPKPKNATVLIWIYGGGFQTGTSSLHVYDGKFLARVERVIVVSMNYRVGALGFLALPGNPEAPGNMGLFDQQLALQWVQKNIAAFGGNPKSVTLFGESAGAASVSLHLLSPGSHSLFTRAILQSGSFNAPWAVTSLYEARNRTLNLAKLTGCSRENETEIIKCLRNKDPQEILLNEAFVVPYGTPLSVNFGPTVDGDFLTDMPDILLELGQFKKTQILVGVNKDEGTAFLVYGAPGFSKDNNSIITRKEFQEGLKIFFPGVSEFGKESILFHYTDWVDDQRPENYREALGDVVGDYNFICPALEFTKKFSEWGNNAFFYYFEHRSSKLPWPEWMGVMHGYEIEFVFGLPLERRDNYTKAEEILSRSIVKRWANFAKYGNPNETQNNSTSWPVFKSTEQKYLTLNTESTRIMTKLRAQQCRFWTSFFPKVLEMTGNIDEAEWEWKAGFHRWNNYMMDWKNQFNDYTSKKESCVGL
Sequence of Acetylcholinesterase (Homo sapiens, UniProt P22303) (P22303 whole entry): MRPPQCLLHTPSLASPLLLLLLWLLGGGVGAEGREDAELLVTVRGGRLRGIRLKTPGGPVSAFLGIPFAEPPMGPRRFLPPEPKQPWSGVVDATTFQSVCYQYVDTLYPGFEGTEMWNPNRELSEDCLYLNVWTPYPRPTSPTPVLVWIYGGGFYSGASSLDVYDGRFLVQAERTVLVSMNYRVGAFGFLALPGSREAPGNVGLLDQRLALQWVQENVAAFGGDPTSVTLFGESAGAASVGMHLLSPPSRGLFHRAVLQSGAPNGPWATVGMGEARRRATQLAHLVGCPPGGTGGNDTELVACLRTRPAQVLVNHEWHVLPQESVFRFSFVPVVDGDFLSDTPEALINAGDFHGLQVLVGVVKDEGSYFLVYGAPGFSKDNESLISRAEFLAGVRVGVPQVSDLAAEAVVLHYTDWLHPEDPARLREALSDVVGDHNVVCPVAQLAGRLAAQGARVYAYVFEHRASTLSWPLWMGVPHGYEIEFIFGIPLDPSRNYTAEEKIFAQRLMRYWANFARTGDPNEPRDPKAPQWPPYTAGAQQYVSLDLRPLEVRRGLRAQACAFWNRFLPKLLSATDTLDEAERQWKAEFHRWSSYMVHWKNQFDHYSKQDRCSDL

Question: For `C=C(C)[C@@H]1CCC(C)=C[C@H]1c1c(O)cc(CCCCC)cc1OC(=O)N(C)Cc1ccc(Cl)cc1`, which K [1] is on record?
Answer: 20.3 µM/min

Question: What about the Kd (Cholinesterase [2]) of the same molecule?
Answer: 13 nM

Question: What about the viability at 24 h, 50 µM [3] of the same molecule?
Answer: 88.3%

Question: What about the Activity (Mus musculus [4]) of the same molecule?
Answer: Active

Question: What about the Activity [5] of the same molecule?
Answer: Non-Toxic

Question: What about the inhibition (Acetylcholinesterase [6]) of the same molecule?
Answer: 26.3%

Question: And the Activity (Mus musculus [7])?
Answer: Active

Question: And the IC50 (Cholinesterase [8])?
Answer: 5.3 nM

Question: What about the logD at 48 h [9] of the same molecule?
Answer: 2.38

Question: What about the Activity [10] of the same molecule?
Answer: Non-Toxic

Question: And the K [11]?
Answer: 5.2 10^3/min

Question: And the inhibition [12]?
Answer: 27.1%

Question: And the Papp at 18 h, 100 ug/ml [13]?
Answer: 12.9 ×10⁻⁶ cm/s

Question: And the Activity (Mus musculus [14])?
Answer: Active

Question: And the inhibition in vivo at 5 mg/kg (Mus musculus [15])?
Answer: 31.6%

Question: What about the IC50 (Cholinesterase [16]) of the same molecule?
Answer: 1770 nM

Question: And the Activity (Mus musculus [17])?
Answer: Active

Question: What about the Activity (PC-12 [18]) of the same molecule?
Answer: Dose-Dependent Effect

Question: What about the viability at 24 h, 50 µM [19] of the same molecule?
Answer: 96%

Question: What about the Activity (Mus musculus [20]) of the same molecule?
Answer: Active

Question: And the Activity (Mus musculus [21])?
Answer: Active

Question: What about the Activity [22] of the same molecule?
Answer: Non-Toxic

Question: And the Activity [23]?
Answer: Non-Toxic

Question: And the Activity (Mus musculus [24])?
Answer: Active

Question: What about the K [25] of the same molecule?
Answer: 0.26 min⁻¹

Question: And the Activity [26]?
Answer: Non-Toxic

Question: What about the Activity [27] of the same molecule?
Answer: Non-Toxic

Question: And the inhibition [28]?
Answer: 21.4%

Question: And the Activity [29]?
Answer: Non-Toxic

Question: And the viability at 25 µM (PC-12 [30])?
Answer: 41.9%

Question: For `C=C(C)[C@@H]1CCC(C)=C[C@H]1c1c(O)cc(CCCCC)cc1OC(=O)N1CCCC1`, which K [1] is on record?
Answer: 0.94 µM/min

Question: What about the Kd (Cholinesterase [2]) of the same molecule?
Answer: 350 nM

Question: And the IC50 (Cholinesterase [8])?
Answer: 390 nM

Question: What about the K [11] of the same molecule?
Answer: 5.13 10^3/min

Question: What about the inhibition [12] of the same molecule?
Answer: 4.9%

Question: And the IC50 (Acetylcholinesterase [31])?
Answer: Not Active

Question: What about the K [25] of the same molecule?
Answer: 0.33 min⁻¹

Question: For `C=C(C)[C@@H]1CCC(C)=C[C@H]1c1c(O)cc(CCCCC)cc1OC(=O)N(CC)CC`, which IC50 (Cholinesterase [8]) is on record?
Answer: 370 nM

Question: What about the inhibition [12] of the same molecule?
Answer: 40.4%

Question: What about the inhibition [28] of the same molecule?
Answer: 28.4%

Question: With `C=C(C)[C@@H]1CCC(C)=C[C@H]1c1c(O)cc(CCCCC)cc1OC(=O)N1CCCCC1` as the molecule, how does the IC50 (Cholinesterase [8]) read?
Answer: 530 nM

Question: What about the inhibition [12] of the same molecule?
Answer: 46.8%

Question: And the inhibition [28]?
Answer: 30.5%

Question: What does the source list for `C=C(C)[C@@H]1CCC(C)=C[C@H]1c1c(O)cc(CCCCC)cc1O` [CANNABIDIOL]?
Answer: IC50 (Cholinesterase [8]): 670 nM; logD at 48 h [9]: 1.67; inhibition [12]: 66.7%; IC50 (Acetylcholinesterase [31]; read-out: IC50): 17100 nM; Papp at 18 h, 100 ug/ml [13]: 22.7 ×10⁻⁶ cm/s; viability at 24 h, 50 µM [19]: 92.6%; viability at 24 h, 25 µM [32]: 20.1%; viability at 25 µM (PC-12 [30]): 17.9%

Question: Which inhibition [12] does the source give for `O=C1O[C@H]([C@@H](O)CO)C(O)=C1O` here?
Answer: 86.2%

Question: Which results are given for `C=C(C)[C@@H]1CCC(C)=C[C@H]1c1c(OC(=O)N(C)Cc2ccccc2)cc(CCCCC)cc1OC(=O)N(C)Cc1ccccc1`?
Answer: IC50 (Cholinesterase [8]): 380 nM; inhibition [12]: 41.8%; IC50 (Acetylcholinesterase [31]): Not Active

Question: With `C=C(C)[C@@H]1CCC(C)=C[C@H]1c1c(O)cc(CCCCC)cc1OC(=O)N1CCOCC1` as the molecule, how does the IC50 (Cholinesterase [8]) read?
Answer: 1890 nM

Question: And the inhibition [12]?
Answer: 21.1%

Question: And the IC50 (Acetylcholinesterase [31])?
Answer: Not Active

Question: Which results are given for `C=C(C)[C@@H]1CCC(C)=C[C@H]1c1c(O)cc(CCCCC)cc1OC(=O)N(C)C`?
Answer: IC50 (Cholinesterase [8]): 200 nM; inhibition [12]: 27.1%; inhibition [28]: 36.1%

Question: For `C=C(C)[C@@H]1CCC(C)=C[C@H]1c1c(OC(=O)N2CCOCC2)cc(CCCCC)cc1OC(=O)N1CCOCC1`, which IC50 (Cholinesterase [8]) is on record?
Answer: 3360 nM

Question: And the inhibition [12]?
Answer: 2%

Question: And the IC50 (Acetylcholinesterase [31])?
Answer: Not Active

Question: Which IC50 (Cholinesterase [8]) does the source give for `C=C(C)[C@@H]1CCC(C)=C[C@H]1c1c(O)cc(CCCCC)cc1OC(=O)N(C)Cc1cccc(F)c1` here?
Answer: 4870 nM

Question: And the inhibition [12]?
Answer: inactive

Question: What about the IC50 (Acetylcholinesterase [31]) of the same molecule?
Answer: Not Active
